Results: patent publication US20240287173A1, “THERAPEUTIC AGENT FOR MUSCULAR ATROPHY” (NATIONAL UNIVERSITY CORPORATION KUMAMOTO UNIVERSITY, priority 2021, published 2024)

What was measured:
[1] = tested on: EDL myofibers derived from N2f/f mice; experiment: Dll4-induced myofiber atrophy on recombinant Dll4-coated plates with γ-secretase inhibitor; assay type: cell-based, mouse; conditions: DAPT 10 μM, 48 hours, recombinant Dll4-coated plate
Method: Culture dishes were coated with Notch ligand recombinant protein as reported by Sakai et al. (Sakai et al., PLOS One 12, e0177516 (2017)). Culture dishes were first coated with 10 μg/ml anti-Fc antibody for 1 hour at room temperature, followed by Matrigel (Corning) for 20 minutes. Fc antibody coated dishes were incubated with 5 ng/μl of Fc fusion protein of each Notch ligand (Dll1, Dll4, Jag1 and Jag2) for 1 hour at room temperature. Individual myofibers isolated from EDL muscle were placed in serum-free DMEM and cultured in a CO2 incubator for 48 hours. DAPT (10 µM) was used to inhibit γ-secretase activity in myofibers.
Cultured myofibers were captured using fluorescence microscopy and diameters were quantified from at least 15 individual myofibers using ImageJ (NIH).
Notch, which is a transmembrane receptor, has its transmembrane domain cleaved by γ-secretase, translocates its intracellular domain to the nucleus, and functions as a transcription factor. Therefore, DAPT, a γ-secretase inhibitor, was used to test the influence of γ-secretase activity on Dll4-induced myofiber atrophy. EDL myofibers derived from N2^f/f mice were cultured for 48 hours on a plate coated previously with recombinant Dll4 protein using a medium containing a γ-secretase inhibitor DAPT (10 μM) or PBS.

[2] = tested on: wild-type mouse mechanical load-induced muscle hypertrophy model; experiment: Mechanical overload (tenotomy)-induced muscle hypertrophy model; assay type: in vivo; conditions: DAPT 10 mg/kg i.p. after tenotomy, day 14, vs control mice
Method: (§1) Wild-type mice were used to examine the effects of inhibition of the Notch signaling pathway on muscle in vitro. Ultra-LEAF™ anti-mouse Dll4 antibody (Dll4 blocking antibody) or Ultra-LEAF™ American hamster IgG control antibody (control antibody) was administered intraperitoneally (10 mg/kg body weight) every 4 days in each experiment. Recombinant Dll4-Fc chimeric protein (rDll4) was dissolved in phosphate-buffered saline (PBS) and administered (0.5 mg/kg body weight) every two days. The γ-secretase inhibitor, DAPT, dissolved in 10% ethanol and corn oil, was administered every 2 days (10 mg/kg body weight). Control mice were injected intraperitoneally with an equivalent volume of vehicle in rDll4 or DAPT experiments.
Tenotomy surgery was performed on both legs of mice to induce muscle hypertrophy. In anesthetized mice, an incision was made along the midline of the calf after hair removal. […]
(§2) Isolated PLA or TA muscles were immediately frozen in liquid nitrogen-cooled 2-methylbutane and stored at −80° C. until analysis. […] Immunostained specimens were visualized using Alexa Fluor conjugated secondary antibodies and observed using fluorescence microscopy. Image-J (NIH) was used to quantify myofiber CSA from at least 500 myofibers and count the number of satellite cells per myofiber from at least 15 myofibers.

wild-type mouse HU model = experiment: Hindlimb unloading (HU) muscle atrophy model; assay type: in vivo; conditions: DAPT 10 mg/kg i.p. every other day during HU period
Method: as §1, with “Control mice were injected intraperitoneally with an equivalent volume of vehicle in rDll4 or DAPT experiments.” left out
(§3) Total RNA was extracted from muscle tissue, isolated myofibers, cultured cells, and freshly sorted cells using ISOGEN II and RNeasy Kit (Qiagen) according to the manufacturer's instructions. […] Quantitative PCR (qPCR) was performed using THUNDERBIRD SYBR qPCR mix (TOYOBO) and real-time PCR detection system (CFX96; Bio Rad). […]
as §2

wild-type mouse DB model = experiment: STZ-induced diabetes (DB) muscle atrophy model; assay type: in vivo; conditions: DAPT 10 mg/kg i.p. every other day during DB induced period
Method: as §1, with “Control mice were injected intraperitoneally with an equivalent volume of vehicle in rDll4 or DAPT experiments.” left out
Mice were given a single intraperitoneal injection of STZ (150 mg/kg body weight) at a level that is toxic to insulin-producing pancreatic β-cells, or an equal volume of solvent (0.1 M citrate buffer, pH 4.5) as a control was injected. Mice were monitored for hyperglycemia on day 3 using Accu-chek (Roche), and only mice that achieved casual blood glucose levels>300 mg/dl were used in the experiment. […]
as §3

myofiber atrophy on Dll4 stimulation (myofiber diameter) [1]: resistant to Dll4 stimulation
SMILES: C[C@H](NC(=O)Cc1cc(F)cc(F)c1)C(=O)N[C@H](C(=O)OC(C)(C)C)c1ccccc1 [DAPT]
muscle hypertrophy (overload-induced PLA muscle weight gain) [2]: muscle hypertrophy was exhibited more readily
muscle atrophy (muscle mass of SOL, PLA, GAS) (wild-type mouse HU model): significant suppression of muscle atrophy
muscle atrophy (muscle mass) (wild-type mouse DB model): significant suppression of muscle atrophy
